These results are taken from patent US8673889B2, “BLT2-mediated disease, BLT2 binding agent and the compound” (Ono Pharmaceutical Co., Ltd., priority 2004, dated 2014).

Structures are written as SMILES.

Assay type in all cases: cell-based
The target of experiment [1] is T1, BLT2 (Homo sapiens, UniProt Q9NPC1).
T1 sequence (Q9NPC1 1-358): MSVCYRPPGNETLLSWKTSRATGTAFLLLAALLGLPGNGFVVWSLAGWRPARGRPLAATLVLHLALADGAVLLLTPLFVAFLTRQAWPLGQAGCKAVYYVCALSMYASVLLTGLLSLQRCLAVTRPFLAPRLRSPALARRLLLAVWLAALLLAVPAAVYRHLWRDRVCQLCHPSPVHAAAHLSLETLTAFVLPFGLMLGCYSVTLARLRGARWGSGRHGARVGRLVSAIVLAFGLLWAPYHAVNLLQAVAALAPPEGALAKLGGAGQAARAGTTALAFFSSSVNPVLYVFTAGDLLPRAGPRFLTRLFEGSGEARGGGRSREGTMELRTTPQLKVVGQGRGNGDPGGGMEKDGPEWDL
Kind of experiment: Evaluation of BLT2 agonistic activity by monitoring the variation of intracellular Ca2+ concentration. Also on record: expressed in transfected cells. As to conditions: for BLT2 agonistic activity: classification of the compounds (1) to (46).

Experiment [2] has as its target T2, BLT1 (Homo sapiens, UniProt Q15722). Description: BLT1 antagonistic activity measured by the same way (intracellular Ca2+). As to conditions: measured by the same way as BLT2. The method, then: (§1) The receptor antagonist activity was evaluated by using human BLT2 gene-overexpressing Chinese Hamster Ovar (CHO) cells (see J. Exp. Med. Volume 192, Number 3 2000, and 421-.). BLT2-expressing cells were cultured in Ham 's F1 medium (GIBCO BRL and No. 11765-047) containing 10% FBS (fetal bovine serum), penicillin/streptomycin and blasticidin (5 μg/ml). First, to make the cells to take Fura2-AM (Dojindo and No. 348-05831), the cells were incubated in 5 μM Fura2-AM solution (Ham's F1 medium containing 10% FBS, 20 mM HEPES buffer (pH7.4) and 2.5 mM probenecid (Sigma and No. P-8761)) at 37° C. for 60 minutes. Then, the cells were washed once with Hanks solution containing 20 mM HEPES buffer (pH7.4) and 2.5 mM probenecid, and soaked in Hanks solution until assay. The plate was sat up on fluorescent drug screening system (Hamamatsu Photonics FDSS-2000) and measured without any stimulation for 30 seconds, to which the compound solution of the present invention was added. […] The compound of the present invention was dissolved to dimethylsulfoxide (DMSO) and added in order that the final concentration is […]. […] IC50 value is a concentration of the compound of the present invention in which the inhibition ratio is 50%. Also, BLT1 antagonistic activity was measured by the same way.

For experiment [3], the target named is T1, BLT2. Description: Evaluation of BLT2 antagonistic activity by monitoring the variation of intracellular Ca2+ concentration. Also on record: expressed in transfected cells; host or cells: CHO cells. The method, then: as §1
Experiment [4] addresses T2, BLT1. Kind of experiment: BLT1 agonistic activity measured by the same way (intracellular Ca2+). As to conditions: measured by the same way as BLT2.
In experiment [5] the target is T3, mBLT2 (Mus musculus, UniProt Q9JJL9).
T3 construct: mBLT2 ORF was amplified by PCR using a sense primer having BamHI restriction enzyme site; expressed in transfected cells
T3 sequence (Q9JJL9 1-360): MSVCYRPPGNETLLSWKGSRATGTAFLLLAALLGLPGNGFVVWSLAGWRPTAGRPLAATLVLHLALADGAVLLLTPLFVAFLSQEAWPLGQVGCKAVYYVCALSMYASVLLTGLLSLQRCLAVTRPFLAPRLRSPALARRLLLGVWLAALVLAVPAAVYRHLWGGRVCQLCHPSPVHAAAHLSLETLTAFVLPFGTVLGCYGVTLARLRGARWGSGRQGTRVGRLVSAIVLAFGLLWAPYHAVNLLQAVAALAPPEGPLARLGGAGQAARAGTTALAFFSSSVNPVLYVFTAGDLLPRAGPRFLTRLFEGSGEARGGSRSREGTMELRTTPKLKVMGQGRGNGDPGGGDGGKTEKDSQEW
Kind of experiment: Measurement of intracellular Ca2+ concentration in mBLT2-expressing CHO cells. As to conditions: FIG. 4, read-out: EC50 value, rise of the intracellular calcium concentration. The text has this:
mBLT2 ORF was amplified by PCR using a sense primer having BamHI restriction enzyme site (sense primer; 5′-[…]-3′ (SEQ ID NO.1)) and an antisense primer having EcoRI restriction enzyme site (antisense primer; 5′-[…]-3′ (SEQ ID NO.2)). The PCR product was digested with BamHI and EcoRI and inserted in expression plasmid (pcDNA3 Invitrogen). The inserted sequence was confirmed by the DNA sequence. Plasmid DNA ([…]) was transfected into CHO cells cultured in Ham's F-12 medium containing 10% fetal bovine serum and antibiotic (streptomycin (100 μg/mL) and penicillin (100 μg/L)) in cell culture plates (6 cm). The resistant strains were obtained by culturing for 2 weeks in the existence of antibiotic (G418 [Wako], 1 mg/mL). […]
mBLT2-expressing CHO cells prepared by Biological Example 3 were cultured in modified Hepes-Tyrode's BSA buffer (Hepes-NaOH (25 mM, pH7.4), NaCl (140 mM), KCl (2.7 mM), CaCl2(10 nM), NaHCO3(12 mM), D-Glucose (5.6 mM), NaH2PO4(0.37 mM), MgCl2(0.49 mM), cremophour (0.01%), fatty acid-free BSA (fraction V, 0.1w/v %)) containing fluorochrome (Fura-2 AM [Dojin], 3 μm) at 37° C. for 2 hours to make to take fluorochrome. […] Dimethylsulfoxide (DMSO) solution (5 μL) containing ligand was added to the cell suspension, of which the intracellular calcium concentration was monitored (excitation wavelength 340 nm and 380 nm and fluorescent wave-length 510 nm).

For experiment [6], the target named is T3, mBLT2. Kind of experiment: ERK phosphorylation (1) in mBLT2-expressing CHO cells. As to conditions: ligand 5 minutes, FIG. 5. The text has this:
mBLT2 ORF was amplified by PCR using a sense primer having BamHI restriction enzyme site (sense primer; 5′-[…]-3′ (SEQ ID NO.1)) and an antisense primer having EcoRI restriction enzyme site (antisense primer; 5′-[…]-3′ (SEQ ID NO.2)). The PCR product was digested with BamHI and EcoRI and inserted in expression plasmid (pcDNA3 Invitrogen). The inserted sequence was confirmed by the DNA sequence. Plasmid DNA ([…]) was transfected into CHO cells cultured in Ham's F-12 medium containing 10% fetal bovine serum and antibiotic (streptomycin (100 μg/mL) and penicillin (100 μg/L)) in cell culture plates (6 cm). The resistant strains were obtained by culturing for 2 weeks in the existence of antibiotic (G418 [Wako], 1 mg/mL). The stable expressing strains were obtained by culturing 19 obtained resistant strains with limiting dilution method.

For experiment [7], the target named is T4, mBLT1 (Mus musculus, UniProt O88855).
T4 construct: expressed in transfected cells; host or cells: CHO cells
T4 sequence (O88855 whole entry): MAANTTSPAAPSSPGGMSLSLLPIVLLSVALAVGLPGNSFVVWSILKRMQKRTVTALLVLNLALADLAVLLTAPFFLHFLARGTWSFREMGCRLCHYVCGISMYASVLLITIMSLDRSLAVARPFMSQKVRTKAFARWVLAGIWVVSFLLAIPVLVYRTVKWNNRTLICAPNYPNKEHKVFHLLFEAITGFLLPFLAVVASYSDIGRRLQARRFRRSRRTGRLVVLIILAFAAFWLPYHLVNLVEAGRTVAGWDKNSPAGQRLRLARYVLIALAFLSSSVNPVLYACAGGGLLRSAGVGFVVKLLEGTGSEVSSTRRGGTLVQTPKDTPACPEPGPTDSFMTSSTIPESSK
Kind of experiment: ERK phosphorylation (1) in mBLT1-expressing CHO cells. As to conditions: ligand 5 minutes, FIG. 5.

For experiment [8], the system named is mouse primary culture keratinocytes. Kind of experiment: ERK phosphorylation (2) in mouse primary culture keratinocytes. As to conditions: FIG. 7.
The target in experiment [9] is T4, mBLT1. Description: Measurement of intracellular Ca2+ concentration in mBLT1-expressing CHO cells. As to conditions: FIG. 4.
The test system of experiment [10] is mock. Kind of experiment: Measurement of intracellular Ca2+ concentration in mock cells. As to conditions: FIG. 4. Here is the method:
mBLT2-expressing CHO cells prepared by Biological Example 3 were cultured in modified Hepes-Tyrode's BSA buffer (Hepes-NaOH (25 mM, pH7.4), NaCl (140 mM), KCl (2.7 mM), CaCl2(10 nM), NaHCO3(12 mM), D-Glucose (5.6 mM), NaH2PO4(0.37 mM), MgCl2(0.49 mM), cremophour (0.01%), fatty acid-free BSA (fraction V, 0.1w/v %)) containing fluorochrome (Fura-2 AM [Dojin], 3 μm) at 37° C. for 2 hours to make to take fluorochrome. These cells were washed 2 times and resuspended (10^6 cells/mL) in Hepes-Tyrode's BSA buffer. The cell suspension (0.5 mL) was applied to fluorescent intensity meter (CAF-100 system [Jasco]). Dimethylsulfoxide (DMSO) solution (5 μL) containing ligand was added to the cell suspension, of which the intracellular calcium concentration was monitored (excitation wavelength 340 nm and 380 nm and fluorescent wave-length 510 nm).

T2 sequence (Q15722 whole entry, species assumed): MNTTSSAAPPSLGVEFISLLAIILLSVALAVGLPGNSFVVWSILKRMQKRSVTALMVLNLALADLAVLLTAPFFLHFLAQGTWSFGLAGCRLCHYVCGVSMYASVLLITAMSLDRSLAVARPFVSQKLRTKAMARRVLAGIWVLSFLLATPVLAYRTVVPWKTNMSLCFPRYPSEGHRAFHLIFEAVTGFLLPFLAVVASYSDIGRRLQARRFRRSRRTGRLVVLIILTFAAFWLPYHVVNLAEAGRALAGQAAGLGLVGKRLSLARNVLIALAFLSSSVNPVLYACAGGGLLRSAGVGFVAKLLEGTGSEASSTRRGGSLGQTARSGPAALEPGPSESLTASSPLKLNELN

Take `CCCCN(Cc1ccc(-c2ccccc2-c2nnn[nH]2)cc1)C(=O)Nc1ccccc1O` [(39), N-butyl-N′-(2-hydroxyphenyl)-N-{[2′-(1H-tetrazol-5-yl)biphenyl-4-yl]methyl}urea]: the BLT2 agonistic activity entry in experiment [1] is “BLT2 agonistic activity”.
In the case of `CCCCN(Cc1ccc(-c2ccccc2-c2nnn[nH]2)cc1)C(=O)Nc1sc2c(c1C(=O)O)CCCC2` [(40), 2-{[(butyl{[2′-(1H-tetrazol-5-yl)biphenyl-4-yl]methyl}amino)carbonyl]amino}-4,5,6,7-tetrahydro-1-benzothiophen-3-carboxylic acid], in [1], the BLT2 agonistic activity result is given as “BLT2 agonistic activity”.
On to `CCCCN(Cc1ccc(-c2ccccc2-c2nnn[nH]2)cc1)C(=O)NCC1CCCO1` (stereo not drawn) [(43), N-butyl-N′-(tetrahydrofuran-2-ylmethyl)-N-{[2′-(1H-tetrazol-5-yl)biphenyl-4-yl]methyl}urea], for which, in [1], the BLT2 agonistic activity result was “BLT2 agonistic activity”.
Regarding `CCCCN(Cc1ccc(-c2ccccc2-c2nnn[nH]2)cc1)C(=O)NCCN1CCOCC1` [(45), N-butyl-N′-(2-morpholin-4-ylethyl)-N-{[2′-(1H-tetrazol-5-yl)biphenyl-4-yl]methyl}urea], the BLT2 agonistic activity result in [1] is “BLT2 agonistic activity”.
As a reminder, the IC50 is the concentration that inhibits the measured activity by half. As for `O=C([O-])c1ccc(-c2cccc(CN(CCCc3ccccc3)C(=O)CCc3ccccc3)c2)cc1.[Na+]` [Example 1(32), sodium 3′-{[(3-phenylpropanoyl)(3-phenylpropyl)amino]methyl}-1,1′-biphenyl-4-carboxylate], the BLT1 antagonistic activity entry in experiment [2] is recorded as “did not have BLT1 antagonistic activity”. Further, 1800 nM corresponded to half-maximal inhibition in experiment [3] (IC50).
For the compound `O=C(Cc1ccccc1)NCc1ccc(-c2ccccc2C(=O)O)cc1` [Example 13, 4′-{[(phenylacetyl)amino]methyl}-1,1′-biphenyl-2-carboxylic acid], the BLT1 agonistic activity entry in experiment [4] was “did not have BLT1 agonistic activity”. The same compound came in with an IC50 in experiment [1] of 45 nM.
With `CCCCC/C=C\C[C@@H](O)/C=C/C=C/C=C\[C@@H](O)CCCC(=O)O` [LTB4, 5-[S], 12-[R]-dihydroxy-6,14-cis-8,10-trans-eicosatetraenoic acid, reference compound], the EC50 in experiment [5] stood at 121 nM. Further, the ERK phosphorylation result in experiment [6] was “induced”; in experiment [7] it was “induced”; in experiment [8], “induced ERK phosphorylation”.
Turning to `CCCCC(=O)N(Cc1ccc(-c2ccccc2C(=O)O)cc1)c1ccccc1` [compound A, 4′-{[pentanoyl(phenyl)amino]methyl}-1,1′-biphenyl-2-carboxylic acid], the EC50 in experiment [5] stood at 21 nM. Further, the “rise of intracellular calcium concentration” value in [9] and in experiment [10] was “not rised” in each case. Besides, the ERK phosphorylation entry in experiment [6] is on record as “induced”; in [7] it was “induced”; in [8], “induced ERK phosphorylation”.
